Reference: PMC6162703, “Interaction of 2′R-ochratoxin A with Serum Albumins: Binding Site, Effects of Site Markers, Thermodynamics, Species Differences of Albumin-binding, and Influence of Albumin on Its Toxicity in MDCK Cells” (Toxins, 2018)
pKd: −log10 of the molar value. “And” between values parts separate entries of the source, which are not always exact repeats. Identical values can stand only once.

What was measured:
HSA [1] = biological target: T1, HSA (Homo sapiens, UniProt P02768); details: cited from earlier work
T1 construct: purchased Sigma-Aldrich
T1 sequence (P02768 25-609): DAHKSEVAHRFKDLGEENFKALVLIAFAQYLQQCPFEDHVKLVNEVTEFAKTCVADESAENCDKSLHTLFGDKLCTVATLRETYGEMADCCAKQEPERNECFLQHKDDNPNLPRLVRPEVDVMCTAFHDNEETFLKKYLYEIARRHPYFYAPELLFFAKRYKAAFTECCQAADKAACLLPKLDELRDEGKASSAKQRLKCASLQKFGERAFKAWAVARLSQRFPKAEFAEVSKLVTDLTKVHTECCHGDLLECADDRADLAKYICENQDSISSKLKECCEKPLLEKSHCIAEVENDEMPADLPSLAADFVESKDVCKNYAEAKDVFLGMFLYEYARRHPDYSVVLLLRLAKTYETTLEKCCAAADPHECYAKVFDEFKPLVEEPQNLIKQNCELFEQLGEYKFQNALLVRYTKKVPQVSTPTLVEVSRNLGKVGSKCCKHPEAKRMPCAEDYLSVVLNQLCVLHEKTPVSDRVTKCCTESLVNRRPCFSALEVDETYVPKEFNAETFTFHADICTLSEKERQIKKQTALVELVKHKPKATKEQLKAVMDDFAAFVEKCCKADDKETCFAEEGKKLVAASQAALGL

HSA [2] = biological target: T1, HSA; assay: Thermodynamics of 2′R-OTA-HSA complex formation (van’t Hoff, six temperatures); format: binding
Source text: Since thermodynamic data give a deeper insight into the nature of protein-ligand interactions (including binding forces are involved in the complex formation), the binding ability of 2′R-OTA towards HSA was also examined at different temperatures. According to the van’t Hoff equation (Equation (2)), the logK values expressed as the function of the appropriate reciprocal temperatures show good linearity (Figure 6).
For the deeper insight into 2′R-OTA-HSA interaction, binding constants of mycotoxin-albumin complexes were also determined at six different temperatures (298, 301, 304, 307, 310 and 313 K). The binding constants were determined by the Hyperquad2006 program package, using 394 and 447 nm as excitation and emission wavelengths, respectively. Thermodynamic parameters associated to the complex formation between 2′R-OTA and HSA were determined based on the van ’t Hoff equation: (2) logK=−ΔG /RT=−ΔH/2.303RT+ΔS/2.303R where ΔG, ΔH, and ΔS denote the Gibbs free energy, enthalpy, and entropy changes of the binding reaction, respectively; while R is the gas constant and T refers the temperature.

[3] = biological target: bovine serum albumin (BSA) (Bos taurus, UniProt P02769); assay: Fluorescence spectroscopy of 2′R-OTA/OTA-BSA complex (binding constant by Hyperquad, fluorescence enhancement); details: for pKd: K in L/mol, PBS pH 7.4, 25 °C
Chain of bovine serum albumin (BSA) (P02769 25-607): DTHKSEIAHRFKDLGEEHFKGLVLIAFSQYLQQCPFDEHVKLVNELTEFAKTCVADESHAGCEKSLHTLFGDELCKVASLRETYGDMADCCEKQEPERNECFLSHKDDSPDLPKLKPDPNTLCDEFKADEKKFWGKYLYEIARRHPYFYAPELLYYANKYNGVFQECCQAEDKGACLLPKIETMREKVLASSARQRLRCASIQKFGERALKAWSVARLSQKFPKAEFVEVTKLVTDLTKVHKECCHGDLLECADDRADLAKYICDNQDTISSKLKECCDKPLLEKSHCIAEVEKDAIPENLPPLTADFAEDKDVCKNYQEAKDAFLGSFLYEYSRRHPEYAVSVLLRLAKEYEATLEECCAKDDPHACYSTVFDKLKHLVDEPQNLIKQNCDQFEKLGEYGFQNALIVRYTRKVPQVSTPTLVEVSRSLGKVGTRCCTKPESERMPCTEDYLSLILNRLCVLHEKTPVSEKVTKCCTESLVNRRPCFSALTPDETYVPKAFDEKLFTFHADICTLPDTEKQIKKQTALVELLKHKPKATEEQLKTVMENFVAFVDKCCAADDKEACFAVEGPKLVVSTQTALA
Protocol: (§1) To test this hypothesis, the fluorescence emission spectra of 2′R-OTA (Figure 7A) and OTA (Figure 7B) were recorded in the absence and presence of albumins from different species, including human (HSA), bovine (BSA), porcine (PSA), and rat (RSA) serum albumins (λex = 394 nm).
(§2) However, excitation of the same samples at 394 nm leads to the excitation of both free and albumin-bound 2′R-OTA [23, 24]. […] Binding constants of 2′R-OTA-albumin complexes were determined by the Hyperquad program, based on the fluorescence intensities measured at 447 nm (Figure 8C,D).
(§3) Fluorescence spectroscopic analyses, including anisotropy measurements, were carried out employing a Hitachi F-4500 fluorescence spectrophotometer. Spectroscopic measurements were performed in phosphate buffered saline (PBS, pH 7.4) at 25 °C in the presence of air. Fluorescence emission spectrum of 2′R-OTA (1 µM) was recorded in the presence of increasing concentrations of albumin (0.0, 0.1, 0.25, 0.5, 0.75, 1.0, 1.25, 1.5, 2.0, 3.0 and 5.0 µM) using 295 and 394 nm as excitation wavelengths. At 394 nm, we excited directly 2′R-OTA and its albumin complex. However, using 295 nm excitation wavelength, albumin-bound 2′R-OTA was excited as a result of the energy transfer between albumins and 2′R-OTA [23, 31].
(§4) Binding constants (K) of mycotoxin-albumin complexes were calculated by non-linear fitting, using the Hyperquad2006 program package (Protonic Software) as described in previous studies. The stoichiometry of 2′R-OTA-albumin complexes was calculated based on the model associated with the lowest standard deviation.

[4] = biological target: porcine serum albumin (PSA) (Sus scrofa, UniProt P08835); assay: Fluorescence spectroscopy of 2′R-OTA/OTA-PSA complex (binding constant by Hyperquad, fluorescence enhancement); details: λem = 447 nm; for pKd: K in L/mol, PBS pH 7.4, 25 °C
Chain of porcine serum albumin (PSA) (P08835 25-607): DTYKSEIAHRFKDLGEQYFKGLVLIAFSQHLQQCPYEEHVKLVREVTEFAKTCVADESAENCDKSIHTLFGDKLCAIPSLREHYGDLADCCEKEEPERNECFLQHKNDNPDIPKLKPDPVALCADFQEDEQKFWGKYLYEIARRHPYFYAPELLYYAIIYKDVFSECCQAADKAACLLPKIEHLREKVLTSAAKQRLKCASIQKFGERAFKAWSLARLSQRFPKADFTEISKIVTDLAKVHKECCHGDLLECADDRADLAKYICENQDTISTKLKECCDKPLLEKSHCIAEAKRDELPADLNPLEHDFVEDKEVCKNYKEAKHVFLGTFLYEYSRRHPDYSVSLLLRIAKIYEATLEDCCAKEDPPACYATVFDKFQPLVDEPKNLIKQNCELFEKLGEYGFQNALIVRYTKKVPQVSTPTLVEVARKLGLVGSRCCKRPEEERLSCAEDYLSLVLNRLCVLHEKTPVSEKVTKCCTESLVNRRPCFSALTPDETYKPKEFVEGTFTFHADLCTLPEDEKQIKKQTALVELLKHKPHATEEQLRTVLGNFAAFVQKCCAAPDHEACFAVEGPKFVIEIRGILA
Protocol: as §1, §2, §3, §4

MDCK cells [5] = format: cell-based, canine; details: 24 h; for effect on the concentration of ATP and total protein: 0–50 µM
Source text: Similarly to OTA, 2′R-OTA also forms very stable complexes with albumins (Table 2). Therefore, it was reasonable to hypothesize that the presence of albumin may decrease the 2′R-OTA-induced toxicity in cell experiments, due to the entrapment of the mycotoxin in the cell medium by albumin. To test the influence of albumin on the in vitro effects of ochratoxins, the acute cellular toxicity of 2′R-OTA and OTA was investigated in the absence and presence of HSA and fetal bovine serum (FBS). MDCK kidney cells were treated with the mycotoxins at increasing concentrations (0–50 µM) for 24 h with and without 10% FBS or 40 g/L HSA. Ten percent FBS is commonly used in cell culture media (it yields approximately 3.5 g/L final concentration of BSA) in cell experiments, whereas approximately 40 g/L HSA circulates in the human blood. The mycotoxin-induced loss of cell viability was evaluated based on ATP and total protein levels. […] Under the applied conditions, the presence of 10% FBS or 40 g/L HSA (without ochratoxins) had no significant effect on cell viability (data not shown). […] The weaker effect of FBS can be attributed to the lower BSA content of the cell medium (3.5 g/L BSA verses 40 g/L HSA). Since albumins form very stable complexes with both 2′R-OTA and OTA, albumin likely reduces the cellular uptake of these mycotoxins, resulting in their lower cellular toxicity.
MDCK (Madin-Darby canine kidney epithelial cell line, ATCC: CCL-34) cell culture was maintained in DMEM with 10% FBS, penicillin (100 U/mL), and streptomycin (100 µg/mL) at 37 °C in a humidified environment (5% CO2). Cells were trypsinized and plated in 96-well sterile plastic plates (approximately 10^4 cells/well) for overnight pre-incubation. Next day, the culture medium was replaced with fresh one (with or without 10% FBS or 40 g/L HSA), then cells were treated with increasing concentrations of 2′R-OTA and/or OTA (0, 1, 5, 10, 20 and 50 µM; in 150 µL medium/well). After 24 h incubation, cell viability was evaluated based on cellular ATP and total protein levels. […]

rat serum albumin (RSA) = rat serum albumin (RSA) (Rattus norvegicus, UniProt P02770); assay: Fluorescence spectroscopy of 2′R-OTA/OTA-RSA complex (binding constant by Hyperquad, fluorescence enhancement); details: for pKd: K in L/mol, PBS pH 7.4, 25 °C
Chain of rat serum albumin (RSA) (P02770 25-608): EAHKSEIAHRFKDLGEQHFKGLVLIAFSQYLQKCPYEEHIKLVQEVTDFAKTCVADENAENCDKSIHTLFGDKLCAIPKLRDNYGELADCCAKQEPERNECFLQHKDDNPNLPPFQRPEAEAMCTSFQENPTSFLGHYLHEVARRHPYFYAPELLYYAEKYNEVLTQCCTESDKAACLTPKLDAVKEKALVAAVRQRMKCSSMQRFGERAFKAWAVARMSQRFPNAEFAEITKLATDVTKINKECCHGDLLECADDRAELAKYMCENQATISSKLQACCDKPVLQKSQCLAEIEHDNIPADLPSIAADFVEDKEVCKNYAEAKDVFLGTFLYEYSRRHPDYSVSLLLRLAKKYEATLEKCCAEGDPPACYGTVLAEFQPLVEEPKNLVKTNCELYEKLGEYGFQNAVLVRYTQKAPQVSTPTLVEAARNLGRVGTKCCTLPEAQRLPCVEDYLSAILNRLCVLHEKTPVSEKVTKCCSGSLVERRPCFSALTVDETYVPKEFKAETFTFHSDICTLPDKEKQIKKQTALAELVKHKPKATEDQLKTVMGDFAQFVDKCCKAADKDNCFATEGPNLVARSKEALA
Protocol: as §1, §2, §3, §4

[6] = system: IHKE and HepG2 cell lines; details: in vitro studies; cited from earlier work
[7] = biological target: human serum albumin (HSA) (Homo sapiens, UniProt P02768); assay: Fluorescence spectroscopy of 2′R-OTA-HSA complex (binding constant by Hyperquad, fluorescence enhancement)
Chain of human serum albumin (HSA) (P02768 25-609): as the sequence (P02768 25-609) above
Protocol: as §1, §2, §3, §4

MDCK cells [8] = assay: Co-treatment of MDCK cells with OTA and 2′R-OTA (ATP levels/well); format: cell-based, canine; details: sub-toxic 2′R-OTA concentrations, 24 h
Protocol: Since 2′R-OTA appears in the circulation together with OTA, the toxic action of OTA in the presence of increasing 2′R-OTA concentrations was also tested. Both mycotoxins occupy Site I as their primary binding sites in albumin, therefore, 2′R-OTA may able to displace OTA from HSA, resulting in the increased cellular uptake and cytotoxicity of OTA in the presence of 2′R-OTA. Because 40 g/L HSA completely abolished the acute toxic action of ochratoxins, co-treatment of MDCK cells with OTA and 2′R-OTA was investigated without albumin and in the presence of 10% FBS. ATP levels/well were quantified after 24 h incubation. […] In the presence of FBS (Figure 10B), the 2′R-OTA-induced further loss in cell viability may be partly attributed to the displacement of OTA from albumin by 2′R-OTA. […] Therefore, other toxicokinetic and/or toxicodynamic mechanism(s) may be involved. Despite its relatively lower toxicity, when simultaneously present 2′R-OTA with OTA, 2′R-OTA can increase the effect of OTA.
MDCK (Madin-Darby canine kidney epithelial cell line, ATCC: CCL-34) cell culture was maintained in DMEM with 10% FBS, penicillin (100 U/mL), and streptomycin (100 µg/mL) at 37 °C in a humidified environment (5% CO2). […] After 24 h incubation, cell viability was evaluated based on cellular ATP and total protein levels. […]

HSA [9] = biological target: T1, HSA; format: binding; details: 1.0 µM 2′R-OTA, 1.5 µM HSA, site marker 0–30 µM, PBS pH 7.4
[10] = humans; cited from earlier work
[11] = humans; cited from earlier work; remark: listed apart in the source
[12] = 1 µM mycotoxin, 5 µM albumin, PBS, λex = 394 nm
[13] = both excitation wavelengths (295 or 394 nm)

C[C@@H]1Cc2c(Cl)cc(C(=O)N[C@H](Cc3ccccc3)C(=O)O)c(O)c2C(=O)O1 [2′R-OTA, 2′R-ochratoxin A]
affinity to HSA lower than that of OTA (HSA [1]): approximately tenfold
binding constant K of the complex with HSA (HSA [1]): ~ 2 × 10^6 L/mol and 2 × 10^6 L/mol
binding constant of 2′R-OTA-HSA complex higher than that of aflatoxin-HSA complexes (HSA [1]): 100 fold
ΔH of 2′R-OTA-HSA complex formation (HSA [2]; 298-313 K): -2.02 kcal/mol
ΔS of 2′R-OTA-HSA complex formation (HSA [2]; 298-313 K): 102.62 J K^-1 mol^-1
ΔG of 2′R-OTA-HSA complex formation (HSA [2]; 298K (room-temperature)): -9.331 kcal/mol
fluorescence enhancement by BSA compared with other albumins [3, 12]: highest emission signal
I/I0 (±SD), enhancement of the fluorescence of 2′R-OTA by complex formation ([3]; BSA, λex = 394 nm, λem = 447 nm, PBS): 2.48 ± 0.06
affinity to BSA relative to HSA and PSA [3, 13]: 2–3 times higher
pKd ([3]; logK (± SD) of binding constant, BSA, λex = 295 nm, λem = 447 nm): 6.67
pKd ([3]; logK (±SD) of binding constant, BSA, λex = 394 nm, λem = 447 nm): 7.32
pKd ([4]; logK (± SD) of binding constant, λex = 295 nm): 6.21
pKd ([4]; logK (±SD) of binding constant, λex = 394 nm): 6.84
I/I0 (±SD), enhancement of the fluorescence of 2′R-OTA by complex formation ([4]; λex = 394 nm, PBS): 1.98 ± 0.05
effect on the concentration of ATP and total protein (MDCK cells [5]): dose-dependent, significant decreases
cytotoxicity relative to OTA (MDCK cells [5]): approximately 10 times lower
I/I0 (±SD), enhancement of the fluorescence of 2′R-OTA by complex formation (rat serum albumin (RSA); RSA, λex = 394 nm, λem = 447 nm, PBS): 2.22 ± 0.09
affinity to RSA relative to HSA and PSA (rat serum albumin (RSA); [13]): 2–3 times higher
pKd (rat serum albumin (RSA); logK (± SD) of binding constant, RSA, λex = 295 nm, λem = 447 nm): 6.45
pKd (rat serum albumin (RSA); logK (±SD) of binding constant, RSA, λex = 394 nm, λem = 447 nm): 7.19
acute toxicity compared with OTA [6]: lower acute toxicity
pKd [7]: 6.28
I/I0 (±SD), enhancement of the fluorescence of 2′R-OTA by complex formation ([7]; HSA, λex = 394 nm, λem = 447 nm, PBS): 2.35 ± 0.07
Kd at 1 µM ([7]; human, human serum albumin (HSA) in PBS, pH 7.4): 229 nM
effect of 2′R-OTA on the toxic effect of OTA (MDCK cells [8]; absence of FBS, 1 μM OTA): increased significantly
effect of 2′R-OTA on the toxic effect of OTA (MDCK cells [8]; presence of 10% FBS, 20 μM OTA): increased significantly

C[C@H]1CCCC(=O)CCC/C=C/c2cc(O)cc(O)c2C(=O)O1 [zearalenone]
binding constant K of the complex with HSA (HSA [1]): 10^5 L/mol

CN(C)c1ccc(N=Nc2ccc(S(=O)(=O)[O-])cc2)cc1.[Na+] [methyl orange]
affinity to HSA compared with another ligand (HSA [1]): much lower affinity to HSA than bilirubin
displacement of 2′R-OTA from HSA by the site marker (HSA [9]): strongly displaced

C=CC1=C(C)/C(=C/c2[nH]c(Cc3[nH]c(/C=C4\NC(=O)C(C)=C4C=C)c(C)c3CCC(=O)O)c(CCC(=O)O)c2C)NC1=O [bilirubin]
displacement of 2′R-OTA from HSA by the site marker (HSA [9]): strongly displaced

C[C@@H]1Cc2c(Cl)cc(C(=O)N[C@@H](Cc3ccccc3)C(=O)O)c(O)c2C(=O)O1 [OTA, Ochratoxin A]
plasma protein binding [10]: 99.8%
stability of OTA-HSA complex higher than that of the complex with bovine albumin (HSA [1]): approximately tenfold
stability of OTA-HSA complex higher than that of the complex with rat albumin (HSA [1]): ~30 fold
affinity order toward albumins of different species (HSA [1]; previous investigations): Human > bovine > porcine > rat
plasma elimination half-life [11]: approximately one month
effect on the concentration of ATP and total protein (MDCK cells [5]): dose-dependent, significant decreases
fluorescence enhancement by RSA compared with other albumins (rat serum albumin (RSA); [12]): highest fluorescence

CC1=C2C(=CO[C@H](C)[C@H]2C)C(O)=C(C(=O)O)C1=O [citrinin]
binding constant K of the complex with HSA (HSA [1]): 200000 L/mol
